# Experiments:
# Oryctolagus cuniculus [1] = test: In vivo activity in normotensive rabbits (23.5+/-2.6 mmHg) for the intraocular pressure (IOP) lowering 60 min after topical administration with one drop of Carbonic anhydrase inhibitor at a pH 7.4; format: functional, Eye
# Carbonic anhydrase 1 = Carbonic anhydrase 1 (Homo sapiens, UniProt P00915)
# Oryctolagus cuniculus [2] = test: In vivo activity in normotensive rabbits (23.5+/-2.6 mmHg) for the intraocular pressure (IOP) lowering 90 min after topical administration with one drop of Carbonic anhydrase inhibitor at a pH 7.4; format: functional, Eye
# Carbonic anhydrase 4 = Carbonic anhydrase 4 (Homo sapiens, UniProt P22748)
# Sequence of Carbonic anhydrase 4 (P22748 whole entry): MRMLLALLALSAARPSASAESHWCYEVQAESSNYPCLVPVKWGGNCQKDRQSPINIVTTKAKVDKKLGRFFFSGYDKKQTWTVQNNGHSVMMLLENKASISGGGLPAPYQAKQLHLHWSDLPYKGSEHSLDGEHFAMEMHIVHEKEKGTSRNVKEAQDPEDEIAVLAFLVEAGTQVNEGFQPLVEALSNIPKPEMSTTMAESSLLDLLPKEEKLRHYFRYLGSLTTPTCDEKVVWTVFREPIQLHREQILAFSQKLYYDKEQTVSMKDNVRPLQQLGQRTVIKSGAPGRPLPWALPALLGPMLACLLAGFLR
# [3] = not given; remark: listed apart in the source
# Oryctolagus cuniculus [4] = test: In vivo activity in normotensive rabbits (23.5+/-2.6 mmHg) for the intraocular pressure (IOP) lowering 30 min after topical administration with one drop of Carbonic anhydrase inhibitor at a pH 7.4; format: functional, Eye
# Sequence of Carbonic anhydrase 1 (P00915 whole entry): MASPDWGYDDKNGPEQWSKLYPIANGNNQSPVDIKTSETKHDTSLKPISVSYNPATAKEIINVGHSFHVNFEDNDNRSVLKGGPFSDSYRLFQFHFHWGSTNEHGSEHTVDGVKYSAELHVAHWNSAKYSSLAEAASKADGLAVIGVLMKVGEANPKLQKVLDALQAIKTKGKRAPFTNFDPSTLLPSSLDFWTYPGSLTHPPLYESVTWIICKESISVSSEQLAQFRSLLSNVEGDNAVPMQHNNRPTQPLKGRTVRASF
smiles,measurement,setting,value
NS(=O)(=O)c1nnc(NC(=O)CN(CCN(CCN(CC(=O)O)CC(=O)O)CC(=O)O)CC(=O)O)s1,Change in IOP,Oryctolagus cuniculus [1],6.8 mmHg
same,Ki,Carbonic anhydrase 1,55 nM
same,Kin,,4.3 h⁻¹
same,Change in IOP,Oryctolagus cuniculus [2],4.5 mmHg
same,Ki,Carbonic anhydrase 4,28 nM
same,Kin,[3],8.1 h⁻¹
same,Change in IOP,Oryctolagus cuniculus [4],3.1 mmHg
